This passage reports EC50 and AC50 results from ChEMBL document CHEMBL1201862, “PubChem BioAssay data set” (2004).

SMILES strings stand for the structures. Active and inactive are the calls of the source.

By AC50 is commonly meant the concentration giving half of the maximal activity seen.

For assay [1], the target named is T1, Protein RecA (Mycobacterium tuberculosis, UniProt P9WHJ3).
T1 sequence (P9WHJ3 whole entry): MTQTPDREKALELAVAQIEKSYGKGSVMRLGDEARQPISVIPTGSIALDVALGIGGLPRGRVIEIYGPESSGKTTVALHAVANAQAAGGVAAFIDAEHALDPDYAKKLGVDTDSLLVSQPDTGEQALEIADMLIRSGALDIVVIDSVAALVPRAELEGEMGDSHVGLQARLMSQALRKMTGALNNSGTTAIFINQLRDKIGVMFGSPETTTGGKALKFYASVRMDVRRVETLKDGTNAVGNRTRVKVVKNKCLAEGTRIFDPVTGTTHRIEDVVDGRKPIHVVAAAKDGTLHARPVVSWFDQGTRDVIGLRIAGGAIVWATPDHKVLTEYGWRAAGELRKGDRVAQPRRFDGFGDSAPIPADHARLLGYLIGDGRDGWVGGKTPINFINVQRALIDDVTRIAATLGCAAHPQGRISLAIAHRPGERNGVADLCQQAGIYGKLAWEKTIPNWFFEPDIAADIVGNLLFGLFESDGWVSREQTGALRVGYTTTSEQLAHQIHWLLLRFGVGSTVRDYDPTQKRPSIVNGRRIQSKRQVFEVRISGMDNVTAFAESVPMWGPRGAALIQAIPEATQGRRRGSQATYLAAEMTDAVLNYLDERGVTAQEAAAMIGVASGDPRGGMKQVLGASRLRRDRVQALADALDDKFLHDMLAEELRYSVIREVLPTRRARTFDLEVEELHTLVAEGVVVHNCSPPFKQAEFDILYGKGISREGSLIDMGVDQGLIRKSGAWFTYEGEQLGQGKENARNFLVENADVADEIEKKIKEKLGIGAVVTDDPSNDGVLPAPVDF
The assay is described as follows: Fluorescence Cell-Free Homogeneous Dose Retest to Identify Inhibitors of RecA-Intein Splicing Activity. [Related pubchem assays (depositor defined):AID2097, AID2223, AID489010, AID492950]. Format: functional.

Assay [2] concerns the target T2, Replicative DNA helicase DnaB (Mycobacterium tuberculosis, UniProt P9WMR3).
T2 sequence (P9WMR3 whole entry): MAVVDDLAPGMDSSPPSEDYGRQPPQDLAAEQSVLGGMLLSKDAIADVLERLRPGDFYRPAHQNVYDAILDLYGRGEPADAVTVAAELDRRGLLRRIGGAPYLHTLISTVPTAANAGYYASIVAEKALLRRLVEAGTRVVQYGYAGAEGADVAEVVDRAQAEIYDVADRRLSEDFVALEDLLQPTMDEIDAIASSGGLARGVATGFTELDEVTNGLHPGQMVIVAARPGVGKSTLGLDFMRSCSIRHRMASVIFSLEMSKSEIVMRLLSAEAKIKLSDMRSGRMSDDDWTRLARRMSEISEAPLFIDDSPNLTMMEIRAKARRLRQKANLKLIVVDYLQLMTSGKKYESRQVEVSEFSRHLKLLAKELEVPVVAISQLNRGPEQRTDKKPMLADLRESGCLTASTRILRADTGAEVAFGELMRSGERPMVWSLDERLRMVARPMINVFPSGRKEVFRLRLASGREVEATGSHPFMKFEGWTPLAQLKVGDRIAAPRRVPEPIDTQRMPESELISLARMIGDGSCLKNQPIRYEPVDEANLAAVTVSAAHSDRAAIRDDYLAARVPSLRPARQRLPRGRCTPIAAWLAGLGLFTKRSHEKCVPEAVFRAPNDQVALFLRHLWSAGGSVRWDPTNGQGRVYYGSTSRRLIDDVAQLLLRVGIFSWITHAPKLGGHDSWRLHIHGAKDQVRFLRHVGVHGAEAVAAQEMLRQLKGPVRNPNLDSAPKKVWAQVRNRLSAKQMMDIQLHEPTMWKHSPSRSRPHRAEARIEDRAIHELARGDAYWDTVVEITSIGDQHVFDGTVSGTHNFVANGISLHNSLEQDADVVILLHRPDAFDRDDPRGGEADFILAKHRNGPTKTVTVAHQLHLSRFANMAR
Nature of the assay: DnaB intein splicing inhibitors, dose response, biochemical, cell-free fluorescence (AID 449749). Format: functional.

The target of assay [3] is T3, Heat shock factor protein 1 (Mus musculus, UniProt P38532).
T3 sequence (P38532 whole entry): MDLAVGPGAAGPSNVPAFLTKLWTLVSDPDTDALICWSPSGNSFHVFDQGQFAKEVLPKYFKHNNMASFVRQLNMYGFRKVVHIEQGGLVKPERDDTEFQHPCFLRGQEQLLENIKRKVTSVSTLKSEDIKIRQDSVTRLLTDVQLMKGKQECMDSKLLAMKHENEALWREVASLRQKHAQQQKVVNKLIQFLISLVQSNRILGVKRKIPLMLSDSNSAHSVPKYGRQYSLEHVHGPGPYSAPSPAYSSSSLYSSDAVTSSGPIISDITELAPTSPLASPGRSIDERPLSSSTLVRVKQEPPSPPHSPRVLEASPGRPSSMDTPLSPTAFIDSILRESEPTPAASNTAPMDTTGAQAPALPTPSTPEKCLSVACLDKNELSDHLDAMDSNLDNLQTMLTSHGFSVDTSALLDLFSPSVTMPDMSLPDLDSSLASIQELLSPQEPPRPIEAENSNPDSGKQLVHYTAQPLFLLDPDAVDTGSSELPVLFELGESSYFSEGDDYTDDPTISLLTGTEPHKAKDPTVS
Nature of the assay: decrease of HSF1-responsive luciferase luminescence – cell-based, NIH3T3, dose retest, confirmation (AID 2382).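 Further: NIH3T3 fibroblasts with HSF1-driven luciferase reporter stressed by proteasome inhibitor MG132; luminescence from HSF1-driven luciferase expression after 8 hours of MG132 stress.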 Format: functional.

The target of assay [4] is Cytochrome P450 2C9 (Homo sapiens, UniProt P11712).
Chain of Cytochrome P450 2C9 (P11712 whole entry): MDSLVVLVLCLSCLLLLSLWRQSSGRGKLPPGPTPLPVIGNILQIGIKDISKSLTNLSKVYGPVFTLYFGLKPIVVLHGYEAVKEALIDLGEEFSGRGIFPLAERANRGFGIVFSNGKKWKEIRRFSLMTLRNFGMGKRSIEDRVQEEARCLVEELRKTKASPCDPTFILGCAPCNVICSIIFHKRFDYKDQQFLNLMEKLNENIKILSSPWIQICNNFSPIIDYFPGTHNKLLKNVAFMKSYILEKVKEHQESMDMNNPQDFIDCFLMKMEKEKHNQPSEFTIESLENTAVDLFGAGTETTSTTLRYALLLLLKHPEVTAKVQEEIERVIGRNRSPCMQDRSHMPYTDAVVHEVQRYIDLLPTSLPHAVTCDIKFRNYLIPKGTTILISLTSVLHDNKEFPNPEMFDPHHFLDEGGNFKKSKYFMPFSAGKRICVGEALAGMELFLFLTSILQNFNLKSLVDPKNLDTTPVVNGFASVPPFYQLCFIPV
Assay [5] has as its target Cytochrome P450 3A4 (Homo sapiens, UniProt P08684).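 Further: CYP3A4 tested as one member of a cytochrome P450 panel screen.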
For assay [6], the target named is Cytochrome P450 2D6 (Homo sapiens, UniProt P10635).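 Further: CYP2D6 member of a cytochrome P450 panel assay.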
Chain of Cytochrome P450 2D6 (P10635 whole entry): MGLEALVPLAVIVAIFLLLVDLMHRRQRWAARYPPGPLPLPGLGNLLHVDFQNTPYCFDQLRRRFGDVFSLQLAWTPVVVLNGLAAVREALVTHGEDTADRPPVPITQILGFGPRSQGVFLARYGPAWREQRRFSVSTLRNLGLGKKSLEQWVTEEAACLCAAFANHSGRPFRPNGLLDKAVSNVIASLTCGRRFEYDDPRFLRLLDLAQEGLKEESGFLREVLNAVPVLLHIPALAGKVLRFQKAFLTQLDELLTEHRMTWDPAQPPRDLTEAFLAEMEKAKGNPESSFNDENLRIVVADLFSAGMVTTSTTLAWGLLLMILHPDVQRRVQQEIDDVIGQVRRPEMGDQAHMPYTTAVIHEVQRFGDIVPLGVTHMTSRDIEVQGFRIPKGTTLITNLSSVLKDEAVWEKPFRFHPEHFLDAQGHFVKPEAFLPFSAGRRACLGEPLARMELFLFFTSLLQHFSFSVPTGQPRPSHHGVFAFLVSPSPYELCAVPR
Assay [7] deals with Streptococcus. The assay is described as follows: GAS UMAA2166 growth inhibition – luminescence, BacTiterGlo, counter-screen for streptokinase expression inhibitor project, dose response (AID 1915).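 Further: potency for reduction of bacterial viability or growth.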 Format: functional, organism-based. On the technique in general: A counterscreen serves to expose hits that act by an unwanted route or on another target.
In assay [8] the test system is Streptococcus sp. 'group A'. Nature of the assay: Streptococcus pyogenes SK(-)GAS viability under kanamycin – luminescence, BacTiterGlo, confirmation, counter-screen for streptokinase expression inhibitor project, dose response (AID 1900). Format: functional, organism-based.
For assay [9], the target named is Cytochrome P450 2C19 (Homo sapiens, UniProt P33261). The assay is described as follows: Cytochrome panel assay with activity outcomes. Panel member name: p450-cyp2c19 Compounds with AC50 equal or less than 10 uM are considered active. Format: functional. Conditions: read-out: AC50.
Chain of Cytochrome P450 2C19 (P33261 whole entry): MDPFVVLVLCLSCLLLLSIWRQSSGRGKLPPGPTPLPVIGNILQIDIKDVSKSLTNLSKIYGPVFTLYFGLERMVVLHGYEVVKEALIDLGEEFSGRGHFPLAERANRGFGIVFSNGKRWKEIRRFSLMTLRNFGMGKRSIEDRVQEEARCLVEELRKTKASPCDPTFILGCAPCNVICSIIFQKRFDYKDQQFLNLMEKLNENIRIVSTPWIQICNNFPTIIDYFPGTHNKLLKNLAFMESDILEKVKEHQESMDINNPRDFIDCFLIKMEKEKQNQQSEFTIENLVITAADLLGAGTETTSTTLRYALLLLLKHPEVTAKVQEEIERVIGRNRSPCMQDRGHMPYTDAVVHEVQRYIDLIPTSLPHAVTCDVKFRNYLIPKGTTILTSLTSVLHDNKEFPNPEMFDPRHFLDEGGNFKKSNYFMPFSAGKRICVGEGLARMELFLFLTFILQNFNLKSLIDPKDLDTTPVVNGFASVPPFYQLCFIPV
Assay [10] deals with T4, Corticotropin-releasing factor receptor 2/Corticotropin-releasing factor-binding protein (Homo sapiens, UniProt P24387+Q13324).
T4 sequence (Q13324 whole entry): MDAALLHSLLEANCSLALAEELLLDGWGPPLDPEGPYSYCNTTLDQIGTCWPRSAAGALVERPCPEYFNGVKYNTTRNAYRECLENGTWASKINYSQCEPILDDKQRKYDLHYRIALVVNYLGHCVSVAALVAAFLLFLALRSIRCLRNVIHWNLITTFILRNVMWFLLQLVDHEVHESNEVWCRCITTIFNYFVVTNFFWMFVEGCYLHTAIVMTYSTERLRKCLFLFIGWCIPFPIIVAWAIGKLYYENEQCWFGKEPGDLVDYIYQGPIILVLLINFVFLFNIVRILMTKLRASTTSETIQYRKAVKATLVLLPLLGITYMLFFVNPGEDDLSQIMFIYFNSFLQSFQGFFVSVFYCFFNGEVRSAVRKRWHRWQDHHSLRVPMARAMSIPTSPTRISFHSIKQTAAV
T4 sequence (P24387 whole entry): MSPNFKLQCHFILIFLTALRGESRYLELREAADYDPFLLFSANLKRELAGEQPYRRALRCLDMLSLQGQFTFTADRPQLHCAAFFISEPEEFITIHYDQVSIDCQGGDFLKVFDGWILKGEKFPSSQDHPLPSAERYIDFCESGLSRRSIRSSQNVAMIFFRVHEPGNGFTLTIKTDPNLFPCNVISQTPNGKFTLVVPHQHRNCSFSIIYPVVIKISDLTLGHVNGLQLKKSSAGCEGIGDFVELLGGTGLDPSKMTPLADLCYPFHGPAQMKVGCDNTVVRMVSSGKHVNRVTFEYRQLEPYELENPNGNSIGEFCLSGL
The assay is described as follows: activators of CRF receptor 2 with binding protein – uHTS hits, confirmation (AID 602473). Format: functional. Particulars: read-out: EC50_Mean.

Chain of Cytochrome P450 3A4 (P08684 whole entry): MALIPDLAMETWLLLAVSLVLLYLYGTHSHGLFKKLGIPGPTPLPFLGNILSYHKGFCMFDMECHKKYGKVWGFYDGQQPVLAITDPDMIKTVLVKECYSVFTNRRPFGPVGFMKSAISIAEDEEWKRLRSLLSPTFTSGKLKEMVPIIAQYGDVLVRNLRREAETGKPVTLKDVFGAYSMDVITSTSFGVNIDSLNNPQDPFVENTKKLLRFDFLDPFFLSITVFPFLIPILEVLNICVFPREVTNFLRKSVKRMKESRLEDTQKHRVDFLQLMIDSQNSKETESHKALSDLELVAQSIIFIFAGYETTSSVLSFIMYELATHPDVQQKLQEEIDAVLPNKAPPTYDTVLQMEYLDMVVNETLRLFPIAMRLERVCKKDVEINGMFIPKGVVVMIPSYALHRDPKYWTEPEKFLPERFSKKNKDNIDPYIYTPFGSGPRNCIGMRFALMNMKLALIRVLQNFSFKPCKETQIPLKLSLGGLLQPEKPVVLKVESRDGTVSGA

For the compound `Cc1ccc(-c2csc(NC(=O)CSC3=NCCS3)n2)cc1`, the EC50 in [1] is 3.83 µM (active). For the same compound, in assay [2], the AC50 was 14.6 µM (active).
For `FC(F)Oc1ccc(NC(S)=NNc2ccnc3cc(Cl)ccc23)cc1`, the EC50 in [3] was > 195 µM (not active).
With `Cc1ccc(-n2nc(C)c3c2OC(N)=C(C#N)C3c2ccccc2F)cc1` (centres undefined), the EC50 in assay [1] was 24 µM (inconclusive). In addition, the half-maximal activity concentration (AC50) in assay [2] is 5.37 µM (active).
For `COc1cccc(/C=C(\C#N)c2nc3ccccc3[nH]2)c1OCC(=O)O`, the EC50 in [3] is reported as > 195 µM (not active).
For the compound `O=C(Nc1cccc(S(=O)(=O)N2CCOCC2)c1)c1ccccn1`, in assay [3], the EC50 is > 195 µM (not active).
On the same count and under the same terms, for `COCCN(C(S)=Nc1c(C)cccc1C)C(C)c1cccnc1` (centres undefined) the value was > 195 µM (not active).
Turning to `COC(=O)[C@@H]1CC[C@H](C)[C@@H](c2ccc(C)cc2)N1C(=O)c1ccc(/C=N\O[C@@H](C)CN2CCCc3nc(C)c(C)cc32)cc1`, the AC50 in [4] is 3.16 µM (inconclusive); in assay [5], 3.98 µM (inconclusive); in [6], 6.31 µM (inconclusive).
For `CN(CC(=O)Nc1cccc(F)c1)CC(=O)Nc1cccc(S(N)(=O)=O)c1`, the EC50 in assay [3] is recorded as > 195 µM (not active).
Still for that read-out and setting: the value for `COc1ccc(CC(NC(C)=O)C(=O)NC2CCN(C(=O)c3ccc(OC)c(OC)c3)CC2)cc1OC` (centres undefined) was > 195 µM (not active).
For the compound `Cc1nn(C)c(Cl)c1CN1CCC(n2nccc2NC(=O)C2CCCC2)CC1`, the EC50 in assay [3] was > 195 µM (not active).
Turning to `NC1=NN(c2cccc(C(=O)O)c2)C(=O)C1`, in [1], the EC50 was 23.7 µM (inconclusive). In addition, in [2], the AC50 was 20 µM (active).
Regarding `CN1C(=O)c2ccccc2Sc2ccc(C(=O)N3CCC4(CC3)OCCO4)cc21`, in [5], the half-maximal activity concentration (AC50) is 20 µM (inconclusive). Moreover, in [3], the EC50 is > 195 µM (not active).
Turning to `COc1ccccc1CN1CC(C(=O)NCCN2CCNC2=O)CCC1=O` (centres undefined), the EC50 in assay [3] was 9.48 µM (active).
As for `CCCCn1c(N)c(N(CC(C)C)C(=O)c2cccc(S(=O)(=O)N3CCCCC3)c2)c(=O)[nH]c1=O`, in [3], the EC50 is given as > 195 µM (not active).
On to `Cc1n[nH]c2c1C(c1ccc3c(c1)OCO3)C(C#N)=C(N)O2` (centres undefined), for which the EC50 in assay [1] was 6.16 µM (active). Further, the AC50 in assay [2] was 15.6 µM (active).
For `CCN(C(=O)COC(=O)/C=C/c1ccccc1)C1CCCCC1`, the EC50 in assay [3] is > 195 µM (not active).
Regarding `Cn1c(=O)n(C)c2cc(NS(C)(=O)=O)ccc21`, the EC50 in assay [3] is > 195 µM (not active).
As to `CCN(CC)S(=O)(=O)c1ccc(C)c(NC(=O)CNCc2ccccc2OC)c1`, in assay [3], the EC50 is > 195 µM (not active).
On to `Cc1ccc(S(=O)(=O)N2CCN(C(=O)c3ccccc3Cc3ccccc3)CC2)c(C)c1`, for which the EC50 in assay [1] is 208 µM (active). Moreover, in assay [2], the AC50 was 2.54 µM (active).
For the compound `Nc1ccc(C#Cc2ccc3oc4ccccc4c(=O)c3c2)cc1`, the EC50 in [7] is 2.37 µM (active); in assay [8], 2.5 µM (active).
Take `CC1=NN(c2ccccc2)C(=O)/C1=C\c1cn(CCC#N)nc1-c1ccc(Cl)cc1`: in assay [1], the EC50 was 2.77 µM (active). Moreover, the AC50 in assay [2] is 3.78 µM (active).
On to `COc1ccc(C(=O)N2CCC3(CC2)CN(c2ccncc2)C3)cc1`, for which the AC50 in assay [4] is 39.8 µM (inconclusive); in assay [5] it was 15.8 µM (inconclusive); in assay [6] it was 25.1 µM (inconclusive).
In the case of `CC(C(=O)NC1CC(C)(C)NC(C)(C)C1)c1ccc([N+](=O)[O-])cc1` (centres undefined), in assay [3], the EC50 is recorded as > 195 µM (not active).
In the case of `CCC(C)N1C(=O)C2C(C(=O)Nc3cccc(OC)c3)C3C=CC2(O3)C1C(=O)NC1CCCCC1C` (centres undefined), the concentration at half-maximal activity (AC50) was 12.6 µM (inconclusive) in [4], 28.2 µM (inconclusive) in assay [9] and 7.08 µM (inconclusive) in [6].
Consider `O=C(C1CCCC1)N1CCCC(Nc2ccc(F)cc2)C1` (centres undefined), for which the EC50 in [10] is > 53 µM (inactive).
`C[C@]12c3[nH]c4ccccc4c3CCN1C(=O)C(CC(=O)NCC13C[C@H]4C[C@@H](C1)C[C@@H](C3)C4)C[C@@H]2C(=O)N1CCOCC1` (some centres undefined): in assay [10], the EC50 was > 53 µM (inactive).
With `CC(C)N=C(S)NC1(C)CCS(=O)(=O)C1` (centres undefined), in [1], the EC50 was > 380 µM (inactive). Also, the AC50 in assay [2] is > 380 µM (inactive).
For `O=C1CC(CC(=O)N/N=C/c2ccccc2[N+](=O)[O-])=NN1`, the EC50 in assay [1] was 1.85 µM (active). The AC50 in assay [2] was 2.19 µM (active).
